Blank lines part the entries; values can stand above or below the compound they belong to. Calls of active or inactive are those of the source. The rule behind the calls is not given here.
Experiments:
K562 [1] = experiment: Antiproliferative activity against human K562 cells assessed as inhibition of cell viability incubated for 72 hrs by real time live-cell imaging technique; type: functional, cell-based; conditions: K562, 72 h
[2] = target: Cyclin-dependent kinase inhibitor 1B (Homo sapiens) (UniProt P46527); experiment: Induction of p27 phosphorylation at T198 residues in human K562 cells up to 10 uM incubated for 48 hrs by human phospho-kinase array; type: cell-based
Chain of Cyclin-dependent kinase inhibitor 1B (Homo sapiens) (P46527 whole entry): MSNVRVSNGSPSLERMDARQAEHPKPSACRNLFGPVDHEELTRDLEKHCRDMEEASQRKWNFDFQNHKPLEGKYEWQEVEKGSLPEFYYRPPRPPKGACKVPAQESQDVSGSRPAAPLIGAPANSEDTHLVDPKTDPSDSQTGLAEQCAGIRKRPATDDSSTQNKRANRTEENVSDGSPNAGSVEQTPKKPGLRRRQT

[3] = target: Cellular tumor antigen p53 (Homo sapiens) (UniProt P04637); experiment: Induction of p53 phosphorylation at S392, S46, S15 residues in human K562 cells up to 10 uM incubated for 48 hrs by human phospho-kinase array; type: cell-based
K562 [4] = experiment: Inhibition of PI3K/Akt signaling in human K562 cells assessed as reduction in p70S6K phosphorylation at T421/S424 residues up to 10 uM incubated for 48 hrs by human phospho-kinase array; type: cell-based
K562 [5] = experiment: Inhibition of RAF/MEK/ERK signalling n human K562 cells assessed as reduction in ERK1/2 phosphorylation at T202/Y204, T185/Y187 residues up to 10 uM incubated for 48 hrs by human phospho-kinase array; type: cell-based
K562 [6] = experiment: Inhibition of MAPK signalling in human K562 cells assessed as effect on p38 phosphorylation up to 10 uM incubated for 48 hrs by human phospho-kinase array; type: cell-based
K562 [7] = experiment: Inhibition of PI3K/Akt signaling in human K562 cells assessed as reduction in mTOR phosphorylation at S2448 residues up to 10 uM incubated for 48 hrs by human phospho-kinase array; type: cell-based
[8] = target: Serine/threonine-protein kinase AKT (Homo sapiens) (UniProt P31751+Q9Y243+P31749); experiment: Inhibition of AKT1/2/3 phosphorylation (S473/T308 residues) in human K562 cells up to 10 uM incubated for 48 hrs by human phospho-kinase array; type: cell-based
K562 [9] = experiment: Inhibition of MAPK signalling in human K562 cells assessed as effect on HSP27 phosphorylation up to 10 uM incubated for 48 hrs by human phospho-kinase array; type: cell-based
[10] = target: Protein-tyrosine kinase 2-beta (Homo sapiens) (UniProt Q14289); experiment: Inhibition of PYK2 phosphorylation in human K562 cells up to 10 uM incubated for 48 hrs by human phospho-kinase array; type: cell-based
Chain of Protein-tyrosine kinase 2-beta (Homo sapiens) (Q14289 whole entry, looked up): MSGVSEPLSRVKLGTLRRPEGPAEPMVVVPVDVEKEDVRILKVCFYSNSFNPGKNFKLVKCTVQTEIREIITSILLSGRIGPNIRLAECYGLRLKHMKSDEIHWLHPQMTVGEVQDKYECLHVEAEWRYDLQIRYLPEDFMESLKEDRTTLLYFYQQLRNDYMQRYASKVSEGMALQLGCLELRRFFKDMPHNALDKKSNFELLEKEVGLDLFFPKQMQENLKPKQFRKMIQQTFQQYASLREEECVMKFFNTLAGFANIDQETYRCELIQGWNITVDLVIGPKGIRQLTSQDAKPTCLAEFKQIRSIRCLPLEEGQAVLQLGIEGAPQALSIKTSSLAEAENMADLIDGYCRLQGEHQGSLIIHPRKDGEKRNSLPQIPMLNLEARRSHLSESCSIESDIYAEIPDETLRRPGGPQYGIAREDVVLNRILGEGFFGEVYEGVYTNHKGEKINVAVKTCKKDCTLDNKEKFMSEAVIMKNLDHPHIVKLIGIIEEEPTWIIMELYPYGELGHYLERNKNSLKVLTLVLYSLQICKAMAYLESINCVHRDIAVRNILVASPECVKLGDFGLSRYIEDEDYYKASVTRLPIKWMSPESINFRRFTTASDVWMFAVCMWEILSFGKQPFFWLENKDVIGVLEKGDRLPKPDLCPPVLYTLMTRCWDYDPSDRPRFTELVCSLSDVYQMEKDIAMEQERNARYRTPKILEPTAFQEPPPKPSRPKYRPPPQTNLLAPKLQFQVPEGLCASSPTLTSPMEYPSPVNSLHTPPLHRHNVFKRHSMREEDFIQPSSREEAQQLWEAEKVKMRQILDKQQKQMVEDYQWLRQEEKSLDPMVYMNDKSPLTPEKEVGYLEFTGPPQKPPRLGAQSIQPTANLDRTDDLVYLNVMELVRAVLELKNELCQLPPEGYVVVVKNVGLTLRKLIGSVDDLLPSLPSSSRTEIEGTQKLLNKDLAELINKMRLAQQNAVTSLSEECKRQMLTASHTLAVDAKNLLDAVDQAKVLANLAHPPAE

K562 [11] = experiment: Inhibition of RAF/MEK/ERK signalling n human K562 cells assessed as reduction in RSK1/2/3 phosphorylation at S380/S386/S377 residues up to 10 uM incubated for 48 hrs by human phospho-kinase array; type: cell-based
K562 [12] = experiment: Induction of apoptosis in human K562 cells assessed as increase in apoptotic cells at 10 uM incubated for 24 to 48 hrs by Caspase-3/7 reagent-based fluorescence assay; type: functional, cell-based
K562 [13] = experiment: Inhibition of MAPK signalling in human K562 cells assessed as effect on JNK phosphorylation up to 10 uM incubated for 48 hrs by human phospho-kinase array; type: cell-based
K562 [14] = experiment: Inhibition of PI3K/Akt signaling in human K562 cells assessed as reduction in GSK3alpha/beta phosphorylation at S21/S9 residues up to 10 uM incubated for 48 hrs by human phospho-kinase array; type: cell-based
[15] = target: Proline-rich AKT1 substrate 1 (Homo sapiens) (UniProt Q96B36); experiment: Inhibition of PRAS40 phosphorylation at T246 residue in human K562 cells up to 10 uM incubated for 48 hrs by human phospho-kinase array; type: cell-based
K562 [16] = experiment: Inhibition of STAT signalling in human K562 cells up to 10 uM incubated for 48 hrs by human phospho-kinase array; type: cell-based
[17] = target: Tyrosine-protein kinase Lck (Homo sapiens) (UniProt P06239); experiment: Inhibition of LCK phosphorylation in human K562 cells up to 10 uM incubated for 48 hrs by human phospho-kinase array; type: cell-based
Chain of Tyrosine-protein kinase Lck (Homo sapiens) (P06239 2-509 limits assumed): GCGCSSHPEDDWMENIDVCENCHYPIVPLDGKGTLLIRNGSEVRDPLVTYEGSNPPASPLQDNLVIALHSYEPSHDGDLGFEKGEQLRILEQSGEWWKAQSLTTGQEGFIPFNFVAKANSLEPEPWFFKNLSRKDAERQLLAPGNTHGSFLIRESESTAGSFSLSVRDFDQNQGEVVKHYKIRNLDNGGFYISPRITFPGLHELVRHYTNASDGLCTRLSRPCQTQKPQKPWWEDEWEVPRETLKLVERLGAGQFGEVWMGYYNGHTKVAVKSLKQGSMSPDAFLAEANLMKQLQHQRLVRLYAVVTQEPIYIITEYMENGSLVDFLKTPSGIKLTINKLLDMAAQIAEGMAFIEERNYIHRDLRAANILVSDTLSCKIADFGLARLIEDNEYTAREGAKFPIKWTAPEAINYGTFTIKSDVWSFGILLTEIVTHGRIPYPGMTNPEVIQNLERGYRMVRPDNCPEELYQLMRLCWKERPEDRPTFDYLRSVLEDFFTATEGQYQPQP

[18] = target: Serine/threonine-protein kinase WNK1 (Homo sapiens) (UniProt Q9H4A3); experiment: Inhibition of WNK1 phosphorylation at T60 residue in human K562 cells up to 10 uM incubated for 48 hrs by human phospho-kinase array; type: cell-based
Chain of Serine/threonine-protein kinase WNK1 (Homo sapiens) (Q9H4A3 whole entry, looked up): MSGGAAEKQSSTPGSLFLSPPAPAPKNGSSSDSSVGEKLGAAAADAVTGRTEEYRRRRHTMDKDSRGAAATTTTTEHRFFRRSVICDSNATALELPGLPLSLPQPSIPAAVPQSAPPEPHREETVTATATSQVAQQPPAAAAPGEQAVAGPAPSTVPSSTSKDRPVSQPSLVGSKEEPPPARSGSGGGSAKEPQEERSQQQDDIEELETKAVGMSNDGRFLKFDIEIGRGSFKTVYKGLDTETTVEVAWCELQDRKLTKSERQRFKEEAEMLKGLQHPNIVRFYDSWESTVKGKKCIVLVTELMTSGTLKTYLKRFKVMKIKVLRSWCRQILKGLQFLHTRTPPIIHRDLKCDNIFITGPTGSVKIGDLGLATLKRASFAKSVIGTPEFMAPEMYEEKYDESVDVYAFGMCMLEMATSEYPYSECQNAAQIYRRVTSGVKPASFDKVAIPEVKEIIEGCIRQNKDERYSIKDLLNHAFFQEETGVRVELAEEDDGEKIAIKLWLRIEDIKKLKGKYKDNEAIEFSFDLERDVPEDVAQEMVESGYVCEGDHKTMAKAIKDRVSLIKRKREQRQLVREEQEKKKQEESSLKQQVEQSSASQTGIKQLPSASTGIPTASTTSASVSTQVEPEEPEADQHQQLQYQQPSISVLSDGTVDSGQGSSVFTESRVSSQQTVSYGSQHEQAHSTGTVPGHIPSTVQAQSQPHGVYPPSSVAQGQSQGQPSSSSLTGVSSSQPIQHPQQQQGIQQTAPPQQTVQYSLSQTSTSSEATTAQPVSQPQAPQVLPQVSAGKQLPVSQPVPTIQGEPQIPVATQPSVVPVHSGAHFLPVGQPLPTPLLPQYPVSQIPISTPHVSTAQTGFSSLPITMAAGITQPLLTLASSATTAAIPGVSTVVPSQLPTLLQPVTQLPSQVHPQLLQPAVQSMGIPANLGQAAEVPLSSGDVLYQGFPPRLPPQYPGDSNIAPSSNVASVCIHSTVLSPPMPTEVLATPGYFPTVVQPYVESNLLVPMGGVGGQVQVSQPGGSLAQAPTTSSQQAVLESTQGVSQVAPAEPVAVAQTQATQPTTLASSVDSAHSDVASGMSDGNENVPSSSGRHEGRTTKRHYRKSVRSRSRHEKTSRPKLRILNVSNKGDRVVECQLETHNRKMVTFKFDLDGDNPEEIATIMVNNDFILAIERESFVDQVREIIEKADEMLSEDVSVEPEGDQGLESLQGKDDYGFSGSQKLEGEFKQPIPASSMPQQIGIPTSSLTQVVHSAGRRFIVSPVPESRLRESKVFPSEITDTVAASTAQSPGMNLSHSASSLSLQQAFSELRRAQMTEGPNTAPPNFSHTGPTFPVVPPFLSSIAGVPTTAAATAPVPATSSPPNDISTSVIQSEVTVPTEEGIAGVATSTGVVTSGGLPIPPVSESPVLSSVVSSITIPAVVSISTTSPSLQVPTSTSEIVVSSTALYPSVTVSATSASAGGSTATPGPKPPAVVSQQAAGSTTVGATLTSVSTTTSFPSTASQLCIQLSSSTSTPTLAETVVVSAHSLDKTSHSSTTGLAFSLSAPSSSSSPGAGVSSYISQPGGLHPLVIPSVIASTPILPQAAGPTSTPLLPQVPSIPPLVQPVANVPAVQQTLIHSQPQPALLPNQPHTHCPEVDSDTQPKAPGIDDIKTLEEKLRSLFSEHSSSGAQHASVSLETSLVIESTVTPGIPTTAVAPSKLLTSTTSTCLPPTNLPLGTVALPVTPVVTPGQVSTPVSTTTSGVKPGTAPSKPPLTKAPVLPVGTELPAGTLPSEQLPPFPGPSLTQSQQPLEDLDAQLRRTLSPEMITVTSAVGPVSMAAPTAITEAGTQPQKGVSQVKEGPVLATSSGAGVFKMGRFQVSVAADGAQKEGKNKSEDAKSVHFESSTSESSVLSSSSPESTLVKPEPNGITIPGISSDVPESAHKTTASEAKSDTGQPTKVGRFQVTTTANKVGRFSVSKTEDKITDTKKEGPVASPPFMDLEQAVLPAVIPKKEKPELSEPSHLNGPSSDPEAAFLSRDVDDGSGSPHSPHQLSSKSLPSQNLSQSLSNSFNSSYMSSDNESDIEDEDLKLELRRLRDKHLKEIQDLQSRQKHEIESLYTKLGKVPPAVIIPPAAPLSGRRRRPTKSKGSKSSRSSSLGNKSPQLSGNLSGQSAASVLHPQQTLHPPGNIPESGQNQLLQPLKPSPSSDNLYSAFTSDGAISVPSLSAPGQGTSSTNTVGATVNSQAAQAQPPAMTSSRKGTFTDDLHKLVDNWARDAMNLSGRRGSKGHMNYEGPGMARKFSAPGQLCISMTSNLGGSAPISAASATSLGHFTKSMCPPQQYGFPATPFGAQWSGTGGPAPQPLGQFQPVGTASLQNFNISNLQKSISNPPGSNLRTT

[19] = target: Proto-oncogene tyrosine-protein kinase Src (Homo sapiens) (UniProt P12931); experiment: Inhibition of SRC phosphorylation in human K562 cells up to 10 uM incubated for 48 hrs by human phospho-kinase array; type: cell-based
Chain of Proto-oncogene tyrosine-protein kinase Src (Homo sapiens) (P12931 2-536 limits assumed): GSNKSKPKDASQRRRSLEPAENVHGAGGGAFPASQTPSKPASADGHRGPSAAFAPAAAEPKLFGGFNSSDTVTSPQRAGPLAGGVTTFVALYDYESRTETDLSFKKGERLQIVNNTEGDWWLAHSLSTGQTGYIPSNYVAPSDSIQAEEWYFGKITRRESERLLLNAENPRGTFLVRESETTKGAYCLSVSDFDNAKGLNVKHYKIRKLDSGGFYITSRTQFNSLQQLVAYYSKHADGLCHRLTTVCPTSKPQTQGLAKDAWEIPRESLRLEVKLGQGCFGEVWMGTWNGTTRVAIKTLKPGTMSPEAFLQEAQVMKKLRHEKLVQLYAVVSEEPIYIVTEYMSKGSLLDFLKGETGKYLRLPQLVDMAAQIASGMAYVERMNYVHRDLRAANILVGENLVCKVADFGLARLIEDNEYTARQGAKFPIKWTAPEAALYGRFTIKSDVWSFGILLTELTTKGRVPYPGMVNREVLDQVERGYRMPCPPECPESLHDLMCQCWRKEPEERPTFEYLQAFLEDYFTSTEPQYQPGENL

K562 [20] = experiment: Induction of apoptosis in human K562 cells assessed as increase in apoptotic cells at 10 uM incubated for 48 hrs by Caspase-3/7 reagent-based fluorescence assay; type: functional, cell-based

SMILES: CCN(CC)CCCNc1cc(Sc2nnc(NC(=O)Nc3ccc(Cl)c(C(F)(F)F)c3)s2)ncn1
IC50 (K562 [1]): 280 nM

SMILES: O=C(Nc1ccc(Cl)c(C(F)(F)F)c1)Nc1nnc(Sc2cc(OCCCN3CCOCC3)ncn2)s1
IC50 (K562 [1]): 150 nM

SMILES: Cc1ccc(NC(=O)Nc2nnc(Sc3cc(OCCCN4CCOCC4)ncn3)s2)cc1
IC50 (K562 [1]): 78 nM

SMILES: CCN(CC)CCCNc1cc(Sc2nnc(NC(=O)Nc3ccc(C)cc3)s2)ncn1
IC50 (K562 [1]): 14 nM

SMILES: Cc1ccc(NC(=O)c2ccc(CN3CCN(C)CC3)cc2)cc1Nc1nccc(-c2cccnc2)n1 [IMATINIB]
Activity (K562 [20]): Active | IC50 (K562 [1]): 140 nM

More lines, main results first:

IC50 (K562 [1]): 35 nM
SMILES: Cc1ccc(NC(=O)Nc2nnc(Sc3cc(NCCCN4CCOCC4)ncn3)s2)cc1Cl

IC50 (K562 [1]): 690 nM
SMILES: COc1cccc(NC(=O)Nc2nnc(Sc3cc(NCCCN4CCOCC4)ncn3)s2)c1

IC50 (K562 [1]): 56 nM
SMILES: Cc1ccc(NC(=O)Nc2nnc(Sc3cc(NCCCN4CCOCC4)ncn3)s2)cc1

Activity [2]: Active | Activity [3]: Active | inhibition [8]: Active | inhibition [10]: Active | inhibition [15]: Active | inhibition [17]: Active | IC50 (K562 [1]): 38 nM | inhibition [18]: Active | inhibition [19]: Active
SMILES: O=C(Nc1ccc(C(F)(F)F)cc1)Nc1nnc(Sc2cc(NCCCN3CCOCC3)ncn2)s1
inhibition (K562 [4]): Active | inhibition (K562 [5]): Active | inhibition (K562 [6]): Active | inhibition (K562 [7]): Active | inhibition (K562 [9]): Active | inhibition (K562 [11]): Active | Activity (K562 [12]): Active | inhibition (K562 [13]): Active | inhibition (K562 [14]): Active | inhibition (K562 [16]): Active

IC50 (K562 [1]): 120 nM
SMILES: O=C(Nc1ccc(Cl)c(C(F)(F)F)c1)Nc1nnc(Sc2cc(NCCCN3CCOCC3)ncn2)s1

IC50 (K562 [1]): 110 nM
SMILES: O=C(Nc1ccc(Cl)cc1)Nc1nnc(Sc2cc(NCCCN3CCOCC3)ncn2)s1
